Data set [1] relates to Sprague Dawley rats. As to the kind of experiment: Effect on systolic blood pressure, telemetry in Sprague Dawley rats. The data set is classed as in vivo, rat. The settings on record: 0.1 mg/kg SC. Summed up:
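Values are % change from a 1 h pre-dose baseline in systolic pressure, tracked by telemetry for up to 48 hours after a single 0.1 mg/kg subcutaneous dose. Rats (Sprague Dawley, n=2 per peptide) carried aortic catheters and recovered at least 10 days post-surgery; duration of action marks the last time point still showing an effect.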

Data set [2] can be described thus: Pharmacokinetics in male Sprague Dawley rats after subcutaneous administration. The data set is classed as in vivo. The following applies: plasma, rat.
Data set [3] deals with T1, human CRF2a receptor (Homo sapiens, UniProt Q13324).
T1 construct: expressed in transfected cells; host or cells: TeloHEAC cells
T1 sequence (Q13324 1-411): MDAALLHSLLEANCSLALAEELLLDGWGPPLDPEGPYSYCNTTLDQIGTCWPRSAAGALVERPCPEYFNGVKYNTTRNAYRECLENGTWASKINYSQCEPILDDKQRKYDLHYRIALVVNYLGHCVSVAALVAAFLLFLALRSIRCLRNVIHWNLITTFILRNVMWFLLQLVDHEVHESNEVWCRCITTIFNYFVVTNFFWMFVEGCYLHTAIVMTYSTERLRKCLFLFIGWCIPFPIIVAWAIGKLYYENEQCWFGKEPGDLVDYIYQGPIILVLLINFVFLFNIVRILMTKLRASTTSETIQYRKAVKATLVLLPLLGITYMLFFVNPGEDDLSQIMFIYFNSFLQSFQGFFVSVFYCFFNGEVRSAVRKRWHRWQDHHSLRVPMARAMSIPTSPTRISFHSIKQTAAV
Nature of the data set: Activity at human CRF2a receptor, cAMP functional assay in TeloHEAC cells. The data set is classed as cell-based. The settings on record: TeloHEAC cells stably expressing human CRF2a receptor, relative to urocortin 2 (100 nM = 100%). The procedure, abridged: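 cAMP accumulation was measured by HTRF 665/620 nm ratio after 30 min at 37° C compound exposure (16 twofold dilutions) of CRF2a-expressing TeloHEAC cells, 10000/well, in HEPES-buffered HBSS plus IBMX. Activity was normalised to urocortin 2 at 100 nM (100%), and EC50 was the concentration giving half-maximal activation.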

A short description of data set [4]: In vitro plasma stability, human plasma. The data set is classed as in vitro ADME. More on the design: dose or concentration left out as unconfirmed. The settings on record: Human PLM, 37° C.
Data set [5] addresses T2, CFR1R receptor (Homo sapiens, UniProt P34998).
T2 construct: host or cells: CHO-K1 (clone 2)
T2 sequence (P34998 24-415): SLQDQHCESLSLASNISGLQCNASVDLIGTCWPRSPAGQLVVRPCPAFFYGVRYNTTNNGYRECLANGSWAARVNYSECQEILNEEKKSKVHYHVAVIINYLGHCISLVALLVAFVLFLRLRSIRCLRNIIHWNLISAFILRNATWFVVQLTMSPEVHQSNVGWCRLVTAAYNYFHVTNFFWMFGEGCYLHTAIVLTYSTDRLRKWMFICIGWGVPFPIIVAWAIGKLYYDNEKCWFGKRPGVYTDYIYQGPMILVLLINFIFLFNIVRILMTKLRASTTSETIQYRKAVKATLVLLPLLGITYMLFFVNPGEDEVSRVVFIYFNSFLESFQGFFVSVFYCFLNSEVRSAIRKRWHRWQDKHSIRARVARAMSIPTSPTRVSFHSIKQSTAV
As to the kind of experiment: Activity at anti-target CFR1R receptor, cAMP assay in CRF1R-overexpression CHO-K1 cells. The data set is classed as cell-based. The settings on record: 100% = Sauvagine at 100 nM. Summed up: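 Uses frozen stocks of CHO-K1 clone 2 cells overexpressing human CRF1R, plated at 4000 cells/well final, with cAMP measured by the same protocol as the TeloHAEC line. Full-activation control: 100 nM Sauvagine.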
For orientation: Cyclic AMP is a second messenger, typically raised through Gs and lowered through Gi signalling.

The text below walks through data of patent publication US20260001928A1 (CORTERIA PHARMACEUTICALS, priority 2022, published 2026).

In general, AUC(0-t) refers to the area under the concentration-time curve up to a stated or last time point. One may read the half-life as how long it takes for the measured level to halve. As usually defined, the Tmax is the time from dosing to the highest level. Broadly, the EC50 is the concentration that produces a half-maximal response. As usually defined, the share remaining is the share of the starting amount still present when the sample was taken.

Molecules are shown by their SMILES. *1 amine or outer side, *2 acyl side, *3 side chain or, on linkers, in order; H or OH if unused. Where a SMILES comes first, the peptide text is derived from it. Side-chain parts run from the residue outwards. [ ]: non-standard residue; d: D form. The star is where a group is joined. C18 diacid = O=C(O)CCCCCCCCCCCCCCCCC(=O)*; γGlu = O=C(O)[C@H](CCC(=O)[*:2])N[*:1]; αMeL = CC(C)C[C@](C)(N)C(=O)O; AEEA = NCCOCCOCC(=O)O; Aib = CC(C)(N)C(=O)O

As to `CC[C@H](C)[C@H](NC(C)=O)C(=O)N[C@H](C(=O)N[C@@H](CC(C)C)C(=O)N[C@@H](CO)C(=O)N[C@@H](CC(C)C)C(=O)N[C@@H](CC(=O)O)C(=O)N[C@@H](C(=O)N1CCC[C@H]1C(=O)N[C@H](C(=O)N[C@@H](CCCCN)C(=O)N[C@@](C)(CC(C)C)C(=O)N[C@@H](CCCCNC(=O)COCCOCCNC(=O)COCCOCCNC(=O)CC[C@H](NC(=O)CCCCCCCCCCCCCCCCC(=O)O)C(=O)O)C(=O)N[C@@H](CCCCN)C(=O)N[C@H](C(=O)N[C@@H](CC(C)C)C(=O)N[C@@H](CC(C)C)C(=O)N[C@@H](CCC(=O)O)C(=O)N[C@@H](CCC(N)=O)C(=O)N[C@@H](CCC(=O)O)C(=O)N[C@@H](CCCCN)C(=O)N[C@@H](CCC(N)=O)C(=O)N[C@@H](CCCCN)C(=O)N[C@@H](CCCCN)C(=O)N[C@@H](CCC(N)=O)C(=O)N[C@@H](CCCNC(=N)N)C(=O)N[C@@H](CCC(=O)O)C(=O)N[C@@H](CCC(N)=O)C(=O)N[C@@H](C)C(=O)N[C@@H](CCC(=O)O)C(=O)N[C@H](C(=O)N[C@@H](CC(N)=O)C(=O)NC(C)(C)C(=O)N[C@@H](CCC(N)=O)C(=O)N[C@H](C(=O)N[C@@H](CC(C)C)C(=O)N[C@@H](C)C(=O)N[C@@H](CCC(N)=O)C(=O)N[C@H](C(N)=O)C(C)C)[C@@H](C)CC)[C@@H](C)O)[C@@H](C)CC)[C@@H](C)CC)C(C)C)C(C)C` [compound 110] (Ac-IVLSLD[dV]PIK[αMeL]K([AEEA-AEEA-γGlu-C18 diacid])KILLEQEKQKKQREQAETN[Aib]QILAQV-NH2), the “Systolic blood pressure (Mean) % change from baseline, 8 h” value in data set [1] (8 h, n=2) is reported as −19%. Further, the “Systolic blood pressure (Mean) % change from baseline, 12 h” value in data set [1] (12 h, n=2) is reported as −10%. Further, the “Systolic blood pressure (Mean) % change from baseline, 24 h” value in data set [1] (24 h, n=2) is given as −6%. The same molecule returned a Duration of action in data set [1] (last time point with an effect on BP still observed) of 20 h. In addition, in data set [2] (IV, 0.05 mg/kg), the AUC(0-t) amounted to 3880 ng·h/mL and the half-life is 288 min. Further, in data set [2] (SC, 0.1 mg/kg), the Tmax was 5 h and the half-life is 300 min. In data set [3], this molecule registered an EC50 of 0.3 nM. Moreover, the fraction remaining at 2 h in data set [4] was 97%. Further, in data set [5], the “Emax (% I)” value is recorded as 9 % I. Also, in data set [5] (cAMP), the EC50 is > 250 nM.
